Experimental findings from ChEMBL document CHEMBL5465560, “Selectivity Literature for EUbOPEN Chemogenomic Library” (2024) are described below.

Usually IC50 stands for the concentration that gives 50% inhibition.

Molecules are shown by their SMILES. A value given as a limit tells only on which side of the number the result lay.

The target of assay [1] is T1, Ephrin type-A receptor 8 (Homo sapiens) (UniProt P29322).
T1 sequence (whole entry): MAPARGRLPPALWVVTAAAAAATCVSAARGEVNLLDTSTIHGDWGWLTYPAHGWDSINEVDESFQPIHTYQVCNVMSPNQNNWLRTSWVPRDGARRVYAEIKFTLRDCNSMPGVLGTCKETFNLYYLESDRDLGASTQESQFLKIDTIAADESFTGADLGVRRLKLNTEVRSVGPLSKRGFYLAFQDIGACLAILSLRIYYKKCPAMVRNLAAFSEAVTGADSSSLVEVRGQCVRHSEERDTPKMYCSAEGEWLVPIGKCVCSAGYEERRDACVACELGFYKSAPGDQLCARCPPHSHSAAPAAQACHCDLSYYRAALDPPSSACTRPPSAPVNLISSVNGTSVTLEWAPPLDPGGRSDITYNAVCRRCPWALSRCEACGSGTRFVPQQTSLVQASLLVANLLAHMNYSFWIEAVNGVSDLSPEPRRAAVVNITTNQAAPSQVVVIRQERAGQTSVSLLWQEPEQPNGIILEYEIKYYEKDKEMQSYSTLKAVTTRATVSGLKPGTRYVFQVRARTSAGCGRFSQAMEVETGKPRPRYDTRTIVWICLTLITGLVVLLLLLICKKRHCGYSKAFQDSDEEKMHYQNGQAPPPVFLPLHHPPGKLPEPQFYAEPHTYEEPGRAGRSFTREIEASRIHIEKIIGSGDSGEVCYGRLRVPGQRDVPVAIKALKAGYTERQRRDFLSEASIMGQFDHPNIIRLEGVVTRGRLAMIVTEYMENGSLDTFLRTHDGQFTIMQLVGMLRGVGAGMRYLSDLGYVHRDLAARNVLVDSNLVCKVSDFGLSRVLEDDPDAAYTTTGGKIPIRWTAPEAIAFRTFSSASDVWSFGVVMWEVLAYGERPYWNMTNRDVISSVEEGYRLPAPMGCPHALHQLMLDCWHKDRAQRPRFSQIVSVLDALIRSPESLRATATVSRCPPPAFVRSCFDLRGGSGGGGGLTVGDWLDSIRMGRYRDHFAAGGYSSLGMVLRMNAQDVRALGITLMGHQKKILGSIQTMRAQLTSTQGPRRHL
Description: Selectivity interaction (Kinase panel (Z-LYTE Assay)) EUB0001632a EPHA8. The following applies: at 10 µM.

Assay [2] concerns the target TGF-beta receptor type-2 (Homo sapiens) (UniProt P37173). Description: Selectivity interaction (LanthaScreen Eu Kinase Binding Assay) EUB0001632a TGFBR2. The following applies: at 10 µM. On the technique in general: TR-FRET usually uses a lanthanide donor and a delayed reading to cut background.
Assay [3] has as its target Serine/threonine-protein kinase OSR1 (Homo sapiens) (UniProt O95747). Description: Selectivity interaction (Ambit KINOMEscan and KiNATiv profiling in Jurkat cells) EUB0000090b OXSR1. The class given is cell-based. The following applies: at 1 µM.
Assay [4] deals with Serine/threonine-protein kinase PAK 6 (Homo sapiens) (UniProt Q9NQU5). Description: Selectivity interaction (KinomeScan (DiscoverX)) EUB0000607a PAK6. The following applies: at 10 µM.
Sequence of Serine/threonine-protein kinase PAK 6 (Homo sapiens) (Q9NQU5 whole entry, looked up, canonical isoform): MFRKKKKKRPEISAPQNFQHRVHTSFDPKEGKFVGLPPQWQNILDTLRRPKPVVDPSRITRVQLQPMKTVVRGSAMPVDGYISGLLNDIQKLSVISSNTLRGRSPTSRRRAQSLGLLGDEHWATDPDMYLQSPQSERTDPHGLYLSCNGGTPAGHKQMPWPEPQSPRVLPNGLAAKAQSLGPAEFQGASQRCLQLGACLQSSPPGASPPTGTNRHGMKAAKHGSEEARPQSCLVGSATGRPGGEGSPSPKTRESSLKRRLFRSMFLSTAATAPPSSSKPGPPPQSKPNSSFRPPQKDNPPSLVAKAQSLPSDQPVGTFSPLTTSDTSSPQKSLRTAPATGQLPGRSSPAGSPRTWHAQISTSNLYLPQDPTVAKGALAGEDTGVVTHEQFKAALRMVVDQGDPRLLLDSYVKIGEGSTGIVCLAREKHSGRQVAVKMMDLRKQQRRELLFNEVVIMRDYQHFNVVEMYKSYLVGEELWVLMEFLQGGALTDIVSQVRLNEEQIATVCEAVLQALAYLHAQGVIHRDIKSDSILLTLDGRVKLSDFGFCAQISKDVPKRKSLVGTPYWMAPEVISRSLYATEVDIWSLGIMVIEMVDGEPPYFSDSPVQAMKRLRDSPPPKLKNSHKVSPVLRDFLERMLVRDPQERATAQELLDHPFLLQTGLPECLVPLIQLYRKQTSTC
Assay [5] deals with Casein kinase I isoform delta (Homo sapiens, UniProt P48730). Description: Selectivity interaction (KinomeScan (DiscoverX)) EUB0000229b CSNK1D. The following applies: at 10 µM.
Sequence of Casein kinase I isoform delta (P48730 whole entry, looked up, canonical isoform): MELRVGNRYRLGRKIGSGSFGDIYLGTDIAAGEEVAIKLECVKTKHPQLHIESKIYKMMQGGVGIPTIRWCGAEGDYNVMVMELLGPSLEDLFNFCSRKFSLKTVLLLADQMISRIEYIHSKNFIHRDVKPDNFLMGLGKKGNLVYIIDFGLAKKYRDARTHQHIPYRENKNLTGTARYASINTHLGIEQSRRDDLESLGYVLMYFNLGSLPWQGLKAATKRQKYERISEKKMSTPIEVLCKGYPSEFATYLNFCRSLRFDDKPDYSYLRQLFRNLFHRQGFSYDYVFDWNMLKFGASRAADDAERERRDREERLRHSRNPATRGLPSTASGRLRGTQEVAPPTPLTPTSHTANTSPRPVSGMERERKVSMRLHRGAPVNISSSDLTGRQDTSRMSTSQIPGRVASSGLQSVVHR
Assay [6] concerns the target Serine/threonine-protein kinase PAK 4 (Homo sapiens, UniProt O96013). Description: Selectivity interaction (KinomeScan (DiscoverX)) EUB0000229b PAK4. The following applies: at 10 µM.
The target in assay [7] is Receptor tyrosine-protein kinase erbB-4 (Homo sapiens, UniProt Q15303). Description: Selectivity interaction (Radiometric kinase assay (using 10 uM ATP)) EUB0000601a ERBB4.
For assay [8], the target named is T2, Phosphatidylinositol 5-phosphate 4-kinase type-2 beta (Homo sapiens) (UniProt P78356).
T2 sequence (whole entry): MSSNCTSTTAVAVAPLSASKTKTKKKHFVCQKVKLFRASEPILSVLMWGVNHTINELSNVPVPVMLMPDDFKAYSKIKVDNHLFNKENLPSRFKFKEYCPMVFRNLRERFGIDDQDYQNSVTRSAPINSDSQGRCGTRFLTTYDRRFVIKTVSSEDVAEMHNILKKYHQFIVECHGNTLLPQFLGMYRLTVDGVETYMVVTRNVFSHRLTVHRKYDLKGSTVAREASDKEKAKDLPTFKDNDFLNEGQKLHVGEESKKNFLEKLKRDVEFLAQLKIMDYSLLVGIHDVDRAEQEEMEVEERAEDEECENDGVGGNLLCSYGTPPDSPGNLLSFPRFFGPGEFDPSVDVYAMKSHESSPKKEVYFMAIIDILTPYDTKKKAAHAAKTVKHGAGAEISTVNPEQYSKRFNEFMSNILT
Description: Selectivity interaction (KinomeScan (DiscoverX)) EUB0001619a PIP4K2B. The note with it: at 1 µM.

In assay [9] the target is Serine/threonine-protein kinase MARK2 (Homo sapiens) (UniProt Q7KZI7). Description: Selectivity interaction (ActivX KiNativ screen (kinase selectivity in THP-1 cell lysates)) EUB0000639a MARK2. It counts as subcellular. The following applies: lysate, at 1 µM.
Sequence of Serine/threonine-protein kinase MARK2 (Homo sapiens) (Q7KZI7 whole entry): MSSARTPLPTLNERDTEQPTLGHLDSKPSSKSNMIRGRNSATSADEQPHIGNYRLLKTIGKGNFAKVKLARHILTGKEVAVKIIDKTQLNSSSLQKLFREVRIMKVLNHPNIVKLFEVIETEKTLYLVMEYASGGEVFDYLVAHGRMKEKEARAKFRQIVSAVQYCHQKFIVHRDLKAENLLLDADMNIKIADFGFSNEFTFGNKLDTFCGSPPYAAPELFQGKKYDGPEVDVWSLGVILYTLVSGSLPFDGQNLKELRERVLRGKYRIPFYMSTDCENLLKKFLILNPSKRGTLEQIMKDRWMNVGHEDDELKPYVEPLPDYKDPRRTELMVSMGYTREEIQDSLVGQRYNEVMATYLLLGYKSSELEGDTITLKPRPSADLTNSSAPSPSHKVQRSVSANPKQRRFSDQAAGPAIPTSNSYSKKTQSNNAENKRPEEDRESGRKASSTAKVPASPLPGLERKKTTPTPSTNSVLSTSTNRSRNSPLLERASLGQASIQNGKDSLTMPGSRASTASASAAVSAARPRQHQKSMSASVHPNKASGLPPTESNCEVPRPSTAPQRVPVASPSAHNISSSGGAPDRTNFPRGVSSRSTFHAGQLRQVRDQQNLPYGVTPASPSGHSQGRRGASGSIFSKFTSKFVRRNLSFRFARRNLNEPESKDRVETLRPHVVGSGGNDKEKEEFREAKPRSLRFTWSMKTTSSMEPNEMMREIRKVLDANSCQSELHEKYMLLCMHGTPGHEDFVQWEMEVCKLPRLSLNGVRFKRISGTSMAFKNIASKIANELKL
Assay [10] addresses Serine/threonine-protein kinase 38-like (Homo sapiens) (UniProt Q9Y2H1). The note with it: at 10 µM.
The target of assay [11] is Tyrosine-protein kinase BTK (Homo sapiens, UniProt Q06187). Description: Selectivity interaction (KinomeScan (DiscoverX)) EUB0001049a BTK. The following applies: at 1 µM.
Sequence of Tyrosine-protein kinase BTK (Q06187 whole entry): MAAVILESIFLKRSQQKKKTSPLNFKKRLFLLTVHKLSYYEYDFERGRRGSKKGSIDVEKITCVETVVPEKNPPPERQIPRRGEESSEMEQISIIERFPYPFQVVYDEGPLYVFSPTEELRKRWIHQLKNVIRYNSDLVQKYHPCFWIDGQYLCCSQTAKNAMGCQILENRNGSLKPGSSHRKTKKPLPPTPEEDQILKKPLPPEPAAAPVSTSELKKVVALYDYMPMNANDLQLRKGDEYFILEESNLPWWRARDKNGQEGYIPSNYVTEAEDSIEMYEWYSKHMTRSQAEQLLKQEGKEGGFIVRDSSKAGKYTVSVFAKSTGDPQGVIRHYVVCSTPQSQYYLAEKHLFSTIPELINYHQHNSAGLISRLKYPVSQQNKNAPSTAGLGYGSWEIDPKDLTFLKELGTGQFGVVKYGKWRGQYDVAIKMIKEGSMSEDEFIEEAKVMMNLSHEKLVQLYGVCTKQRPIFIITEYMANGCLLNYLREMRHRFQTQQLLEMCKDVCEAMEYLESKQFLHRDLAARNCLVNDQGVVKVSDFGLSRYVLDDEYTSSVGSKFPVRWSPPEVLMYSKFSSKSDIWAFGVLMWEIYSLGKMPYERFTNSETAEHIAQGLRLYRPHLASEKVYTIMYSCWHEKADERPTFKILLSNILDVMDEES
Assay [12] concerns the target T3, Dual specificity tyrosine-phosphorylation-regulated kinase 3 (Homo sapiens, UniProt O43781).
T3 sequence (O43781 whole entry): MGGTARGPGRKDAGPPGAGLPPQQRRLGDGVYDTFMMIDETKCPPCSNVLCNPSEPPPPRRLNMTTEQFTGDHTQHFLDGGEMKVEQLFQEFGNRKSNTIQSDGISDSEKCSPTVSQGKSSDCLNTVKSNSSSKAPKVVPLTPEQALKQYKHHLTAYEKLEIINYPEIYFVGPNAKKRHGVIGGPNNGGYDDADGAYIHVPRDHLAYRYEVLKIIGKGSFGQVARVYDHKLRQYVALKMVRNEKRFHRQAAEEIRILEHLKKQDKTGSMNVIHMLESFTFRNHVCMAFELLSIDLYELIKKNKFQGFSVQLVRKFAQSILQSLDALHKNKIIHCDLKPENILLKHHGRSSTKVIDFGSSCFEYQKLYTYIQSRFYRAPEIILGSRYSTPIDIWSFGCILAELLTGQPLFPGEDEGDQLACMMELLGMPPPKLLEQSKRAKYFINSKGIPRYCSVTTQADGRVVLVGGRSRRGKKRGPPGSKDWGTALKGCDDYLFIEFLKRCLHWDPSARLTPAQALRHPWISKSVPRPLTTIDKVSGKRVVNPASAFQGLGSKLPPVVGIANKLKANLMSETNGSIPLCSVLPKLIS
Description: Selectivity interaction (Enzymatic assay (Eurofins)) EUB0001049a DYRK3.

Assay [13] has as its target Receptor-type tyrosine-protein kinase FLT3 (Homo sapiens) (UniProt P36888). Description: Selectivity interaction (KinomeScan (DiscoverX)) EUB0000695a FLT3. The note with it: at 100 nM.
In assay [14] the target is Cyclin-dependent kinase 17 (Homo sapiens) (UniProt Q00537). Description: Selectivity interaction (KinomeScan (DiscoverX)) EUB0000092b CDK17. The following applies: at 10 µM.
Sequence of Cyclin-dependent kinase 17 (Homo sapiens) (Q00537 whole entry, looked up): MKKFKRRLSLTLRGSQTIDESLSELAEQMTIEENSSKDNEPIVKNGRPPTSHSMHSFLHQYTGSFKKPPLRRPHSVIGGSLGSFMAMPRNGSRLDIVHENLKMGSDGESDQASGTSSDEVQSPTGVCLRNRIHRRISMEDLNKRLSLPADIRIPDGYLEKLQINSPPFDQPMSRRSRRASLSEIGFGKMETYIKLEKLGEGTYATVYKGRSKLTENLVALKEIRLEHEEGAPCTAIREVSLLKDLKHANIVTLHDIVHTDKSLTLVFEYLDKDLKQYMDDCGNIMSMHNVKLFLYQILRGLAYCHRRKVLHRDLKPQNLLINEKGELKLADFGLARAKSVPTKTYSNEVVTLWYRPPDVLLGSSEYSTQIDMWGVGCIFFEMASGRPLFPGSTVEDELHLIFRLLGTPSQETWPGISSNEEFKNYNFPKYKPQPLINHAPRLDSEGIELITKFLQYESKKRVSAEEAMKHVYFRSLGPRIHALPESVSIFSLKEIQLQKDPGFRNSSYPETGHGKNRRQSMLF

Sequence of Receptor-type tyrosine-protein kinase FLT3 (Homo sapiens) (P36888 whole entry): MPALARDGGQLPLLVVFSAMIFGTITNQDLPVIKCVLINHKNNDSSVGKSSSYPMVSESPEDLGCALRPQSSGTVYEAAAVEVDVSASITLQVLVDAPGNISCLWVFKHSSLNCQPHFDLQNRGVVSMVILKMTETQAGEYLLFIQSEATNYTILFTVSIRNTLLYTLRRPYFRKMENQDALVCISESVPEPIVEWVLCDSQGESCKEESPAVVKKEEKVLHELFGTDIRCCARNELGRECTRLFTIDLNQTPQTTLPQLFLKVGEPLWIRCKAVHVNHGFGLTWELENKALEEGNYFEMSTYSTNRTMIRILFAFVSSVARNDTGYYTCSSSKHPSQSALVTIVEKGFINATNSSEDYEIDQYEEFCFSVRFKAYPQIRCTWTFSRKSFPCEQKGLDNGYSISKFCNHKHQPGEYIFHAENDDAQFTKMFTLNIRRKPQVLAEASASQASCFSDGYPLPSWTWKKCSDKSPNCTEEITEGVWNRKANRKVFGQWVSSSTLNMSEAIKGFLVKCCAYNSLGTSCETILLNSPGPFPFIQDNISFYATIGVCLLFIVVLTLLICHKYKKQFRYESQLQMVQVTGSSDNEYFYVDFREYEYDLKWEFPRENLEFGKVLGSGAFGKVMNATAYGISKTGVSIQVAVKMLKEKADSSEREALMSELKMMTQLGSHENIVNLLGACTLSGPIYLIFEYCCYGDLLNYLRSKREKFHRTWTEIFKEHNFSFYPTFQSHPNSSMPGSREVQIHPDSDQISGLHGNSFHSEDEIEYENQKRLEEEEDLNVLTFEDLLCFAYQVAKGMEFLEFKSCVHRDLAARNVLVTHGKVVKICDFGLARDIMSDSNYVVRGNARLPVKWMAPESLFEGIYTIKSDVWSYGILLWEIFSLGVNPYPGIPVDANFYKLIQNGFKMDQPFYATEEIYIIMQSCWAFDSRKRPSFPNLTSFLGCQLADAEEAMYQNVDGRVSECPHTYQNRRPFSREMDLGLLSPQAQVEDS
Sequence of Serine/threonine-protein kinase 38-like (Homo sapiens) (Q9Y2H1 2-464 limits assumed): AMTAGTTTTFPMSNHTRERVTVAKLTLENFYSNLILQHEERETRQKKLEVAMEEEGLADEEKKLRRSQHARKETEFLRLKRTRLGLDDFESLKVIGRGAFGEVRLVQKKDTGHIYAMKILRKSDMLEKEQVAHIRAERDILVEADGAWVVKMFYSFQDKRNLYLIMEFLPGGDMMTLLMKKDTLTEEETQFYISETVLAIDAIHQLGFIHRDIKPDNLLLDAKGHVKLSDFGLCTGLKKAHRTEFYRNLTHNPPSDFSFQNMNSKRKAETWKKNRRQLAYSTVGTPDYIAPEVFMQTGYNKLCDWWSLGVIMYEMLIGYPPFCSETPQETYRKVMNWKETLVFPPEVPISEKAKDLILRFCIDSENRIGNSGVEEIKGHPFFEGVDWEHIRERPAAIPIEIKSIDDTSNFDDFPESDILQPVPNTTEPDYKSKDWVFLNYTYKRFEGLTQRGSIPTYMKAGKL
Sequence of Serine/threonine-protein kinase OSR1 (Homo sapiens) (O95747 2-527 limits assumed): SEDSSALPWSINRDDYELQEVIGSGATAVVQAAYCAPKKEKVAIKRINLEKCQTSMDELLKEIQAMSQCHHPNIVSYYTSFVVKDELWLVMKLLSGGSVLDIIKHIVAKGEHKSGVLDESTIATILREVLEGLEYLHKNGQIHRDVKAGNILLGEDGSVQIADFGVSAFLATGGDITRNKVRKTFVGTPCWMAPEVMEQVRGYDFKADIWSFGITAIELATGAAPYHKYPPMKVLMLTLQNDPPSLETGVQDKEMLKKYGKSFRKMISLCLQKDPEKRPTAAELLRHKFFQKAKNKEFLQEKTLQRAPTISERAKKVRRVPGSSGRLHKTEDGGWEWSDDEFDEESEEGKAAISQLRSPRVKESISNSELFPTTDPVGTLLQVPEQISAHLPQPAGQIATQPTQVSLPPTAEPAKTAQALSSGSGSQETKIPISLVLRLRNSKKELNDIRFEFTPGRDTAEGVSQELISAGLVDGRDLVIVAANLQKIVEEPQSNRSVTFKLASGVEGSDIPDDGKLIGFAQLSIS

`Cn1cc(-n2cnc3c(NCc4nc5cc(Cl)c(Cl)cc5[nH]4)nc(N4CCOCC4)nc32)cn1`: the % of control in assay [1] is -0.692%. Also, the % of inhibition in assay [2] is -26.6%.

Take `CN(C)C/C=C/C(=O)Nc1ccc(C(=O)N2CCCC(Nc3ncc(Cl)c(-c4c[nH]c5ccccc45)n3)C2)cc1` (centres undefined): the % of control in assay [3] is 87%. On to `CNC(=O)Nc1ccc(-c2nc(N3CC4CCC(C3)O4)c3cnn(C4CCC5(CC4)OCCO5)c3n2)cc1`, for which the % of control in assay [4] is 100%. For the compound `COc1cc(N(C)c2ccnc3ccc(C(F)(F)F)cc23)cc(OC)c1OC`, the % binding in assay [5] was 69%; in assay [6], 81%. With `CCc1cc(Nc2nccc(-c3c(-c4ccc(OC)c(C(=O)Nc5c(F)cccc5F)c4)nc4ccccn34)n2)c(OC)cc1N1CCC(N2CCN(S(C)(=O)=O)CC2)CC1`, in assay [7], the half-inhibitory concentration (IC50) was over 250 µM. Turning to `N#Cc1cccc(-c2c[nH]c3ncnc(N4CCOCC4)c23)c1`, the % of control in [8] came to 23%. Take `CC[C@@H]1[C@H](F)C(=O)N[C@@H]1COc1nccc2cc(C(N)=O)c(OC)cc12` [ZIMLOVISERTIB]: in [9], the % of inhibition amounted to 26.6%. Consider `CCN(CC)CCCCNc1ncc2cc(-c3cc(OC)cc(OC)c3)c(NC(=O)NC(C)(C)C)nc2n1`, for which the % of control in assay [10] is 100%. On to `COc1cc(Nc2nc(C)cc(-c3cnn4nc(OC)ccc34)n2)cc(C(F)(F)F)c1`, for which, in assay [11], the % of control stood at 87%. In assay [12], this compound returned an IC50 of over 10 µM. In the case of `Cc1cc(F)c(C(=O)Nc2cccc(-c3nncn3C(C)C)n2)cc1-n1cnc(C2CC2)c1`, the % of control in assay [13] worked out at 100%.

As for `CCC(=O)N1CCN(c2ccc(-n3c(=O)ccc4cnc5ccc(-c6cnc7ccccc7c6)cc5c43)cc2C(F)(F)F)CC1`, the % of control in assay [14] worked out at 97%.
